Read-outs that look alike come from different tables or passages of the source.
Columns and labels:
human OCT2 [1] = biological target: T1, human OCT2 (Homo sapiens, UniProt O15244); experiment: Transport of TEA and MPP in CHO cells that stably expressed human OCT2; type: cell-based; settings: for true Kt for OCT2-mediated transport (suggested): authors' estimate in the discussion; for Ktapp of uptake: 30 sec uptakes
T1 sequence (O15244 1-555): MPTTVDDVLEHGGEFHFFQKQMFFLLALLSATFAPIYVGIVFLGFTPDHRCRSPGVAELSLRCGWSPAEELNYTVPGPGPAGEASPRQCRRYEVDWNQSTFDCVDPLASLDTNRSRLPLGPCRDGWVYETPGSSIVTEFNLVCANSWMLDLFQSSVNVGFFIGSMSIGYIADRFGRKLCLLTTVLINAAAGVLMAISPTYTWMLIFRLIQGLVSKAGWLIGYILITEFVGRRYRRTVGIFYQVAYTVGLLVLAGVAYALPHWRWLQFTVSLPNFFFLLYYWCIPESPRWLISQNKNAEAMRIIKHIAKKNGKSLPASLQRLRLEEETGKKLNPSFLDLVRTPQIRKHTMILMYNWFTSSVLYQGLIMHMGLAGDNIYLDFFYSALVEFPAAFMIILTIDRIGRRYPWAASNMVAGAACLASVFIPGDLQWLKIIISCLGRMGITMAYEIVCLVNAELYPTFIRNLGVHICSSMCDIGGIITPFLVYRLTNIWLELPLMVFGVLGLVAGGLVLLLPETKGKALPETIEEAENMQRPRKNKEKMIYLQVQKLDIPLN

human OCT2 [2] = biological target: T1, human OCT2; experiment: Literature kinetic parameters for OCT2-mediated transport, cells; type: cell-based; settings: median of the values in Table I
human OCT2 [3] = biological target: T1, human OCT2; settings: ref Morales & Wright, unpublished; cited from earlier work
[4] = OCT2 knockdown cells (shRNA #6), paired studies, three (TEA) or four (MPP)
[5] = control (fully expressing) cells, paired studies, three (TEA) or four (MPP)
[6] = control (unshaken), 96 well plate, n=3
[7] = shaken (reciprocal, 13 Hz), 96 well plate, n=3

Question: With `CN(C)C(=N)N=C(N)N` [Metformin] as the compound, how does the “true Kt for OCT2-mediated transport (suggested)” value (human OCT2 [1]) read?
Answer: The value was ~ 1000 µM.

Question: And the “median Jmax” value (human OCT2 [2])?
Answer: Its value is ~ 350 pmol cm^−2 min^−1.

Question: And the Jmax (human OCT2 [3])?
Answer: The Jmax was 265 pmol cm^−2 min^−1.

Question: And the Ktapp (human OCT2 [3])?
Answer: Its Ktapp is 378 µM.

Question: With `C[n+]1ccc(-c2ccccc2)cc1` [MPP, 1-Methyl-4-phenylpyridinium] as the compound, how does the “increase of 30 sec uptake by shaking” value (human OCT2 [1]; 24 well plate, flat-bed orbital shaker 300 rpm (5 Hz), [3H] substrate, P < 0.05) read?
Answer: Its value is 50%.

Question: And the Jmax (human OCT2 [1]; [4])?
Answer: The Jmax was 6.1 ± 1.2 pmol cm^−2 min^−1.

Question: What about the “apparent Kt” value (human OCT2 [1]; [4]) of the same compound?
Answer: The value was 3.8 ± 0.5 µM.

Question: What about the Ktapp (human OCT2 [1]; OCT2 knockdown cells, six paired experiments (n = 6)) of the same compound?
Answer: The Ktapp was 3.3 ± 0.9 µM.

Question: And the Jmax (human OCT2 [1]; Table I, present study)?
Answer: The Jmax was 35 pmol cm^−2 min^−1.

Question: And the Ktapp (human OCT2 [1]; Table I, present study)?
Answer: The Ktapp was 9 µM.

Question: What about the “true Kt for OCT2-mediated transport (suggested)” value (human OCT2 [1]) of the same compound?
Answer: Its value is 1 to 2 µM.

Question: And the “Winne ‘bias’” value (human OCT2 [1]; calculated from present study Jmax and a 1500 µm UWL)?
Answer: Its value is 7 µM.

Question: And the “maximum transport rates, fold lower than in parental OCT2-expressing cells” value (human OCT2 [1]; cells with reduced OCT2 expression (RNAi))?
Answer: Its value is 11 fold.

Question: And the Jmax (human OCT2 [1]; [5])?
Answer: Its Jmax is 64.7 ± 16.6 pmol cm^−2 min^−1.

Question: And the “apparent Kt” value (human OCT2 [1]; [5])?
Answer: The value was 16.6 ± 4.0 µM.

Question: What about the Ktapp of uptake (human OCT2 [1]; [6]) of the same compound?
Answer: The Ktapp of uptake was 6.5 ± 0.4 µM.

Question: And the Jmax (human OCT2 [1]; [6])?
Answer: Its Jmax is 35.4 ± 1.4 pmol cm^−2 min^−1.

Question: What about the “estimated true Kt” value (human OCT2 [1]; intercept of the Jmax vs Ktapp relationship (linear regression)) of the same compound?
Answer: The value was 1.8 ± 1.6 µM.

Question: And the “reduction in the 15 sec uptake in OCT2 knockdown cells” value (human OCT2 [1]; knockdown (shRNA #6) vs control cells, […] [14C]TEA plus 1.0 nM [3H]MPP)?
Answer: Its value is 55%.

Question: What about the “reduction of Jmax in OCT2 knockdown cells” value (human OCT2 [1]; knockdown vs control cells) of the same compound?
Answer: Its value is 90%.

Question: What about the Ktapp of uptake (human OCT2 [1]; [7]) of the same compound?
Answer: Its Ktapp of uptake is 4.5 ± 0.5 µM.

Question: What about the Jmax (human OCT2 [1]; [7]) of the same compound?
Answer: The Jmax was 37.4 ± 2.5 pmol cm^−2 min^−1.
